The target of assay [1] is Ribosomal protein S6 kinase beta-1 (Homo sapiens, UniProt P23443).
Assay [2] deals with T1, Mitogen-activated protein kinase kinase kinase 3 (Homo sapiens, UniProt Q99759).
T1 sequence (Q99759 whole entry): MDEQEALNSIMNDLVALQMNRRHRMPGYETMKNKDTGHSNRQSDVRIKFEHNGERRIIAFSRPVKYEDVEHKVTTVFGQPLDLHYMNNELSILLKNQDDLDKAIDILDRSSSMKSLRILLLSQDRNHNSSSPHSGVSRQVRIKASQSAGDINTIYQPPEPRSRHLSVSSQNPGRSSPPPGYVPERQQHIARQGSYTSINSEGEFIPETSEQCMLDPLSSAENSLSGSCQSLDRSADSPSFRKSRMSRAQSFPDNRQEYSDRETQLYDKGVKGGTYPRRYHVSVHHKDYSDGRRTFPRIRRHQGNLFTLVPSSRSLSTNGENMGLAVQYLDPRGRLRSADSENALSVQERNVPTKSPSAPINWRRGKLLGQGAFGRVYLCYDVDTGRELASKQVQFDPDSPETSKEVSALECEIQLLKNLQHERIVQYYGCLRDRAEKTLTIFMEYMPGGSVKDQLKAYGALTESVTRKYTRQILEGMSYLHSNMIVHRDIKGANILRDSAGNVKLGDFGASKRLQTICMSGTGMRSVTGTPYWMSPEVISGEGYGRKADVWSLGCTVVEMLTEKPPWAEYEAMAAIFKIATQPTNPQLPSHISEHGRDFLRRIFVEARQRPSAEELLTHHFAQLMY

The target in assay [3] is Receptor-interacting serine/threonine-protein kinase 2 (Homo sapiens, UniProt O43353).
The target of assay [4] is Insulin-like growth factor 1 receptor (Homo sapiens, UniProt P08069).
The target in assay [5] is Cyclin-dependent kinase 12 (Homo sapiens, UniProt Q9NYV4).
Assay [6] concerns the target T2, Peroxisomal acyl-coenzyme A oxidase 3 (Homo sapiens, UniProt O15254).
T2 sequence (O15254 whole entry): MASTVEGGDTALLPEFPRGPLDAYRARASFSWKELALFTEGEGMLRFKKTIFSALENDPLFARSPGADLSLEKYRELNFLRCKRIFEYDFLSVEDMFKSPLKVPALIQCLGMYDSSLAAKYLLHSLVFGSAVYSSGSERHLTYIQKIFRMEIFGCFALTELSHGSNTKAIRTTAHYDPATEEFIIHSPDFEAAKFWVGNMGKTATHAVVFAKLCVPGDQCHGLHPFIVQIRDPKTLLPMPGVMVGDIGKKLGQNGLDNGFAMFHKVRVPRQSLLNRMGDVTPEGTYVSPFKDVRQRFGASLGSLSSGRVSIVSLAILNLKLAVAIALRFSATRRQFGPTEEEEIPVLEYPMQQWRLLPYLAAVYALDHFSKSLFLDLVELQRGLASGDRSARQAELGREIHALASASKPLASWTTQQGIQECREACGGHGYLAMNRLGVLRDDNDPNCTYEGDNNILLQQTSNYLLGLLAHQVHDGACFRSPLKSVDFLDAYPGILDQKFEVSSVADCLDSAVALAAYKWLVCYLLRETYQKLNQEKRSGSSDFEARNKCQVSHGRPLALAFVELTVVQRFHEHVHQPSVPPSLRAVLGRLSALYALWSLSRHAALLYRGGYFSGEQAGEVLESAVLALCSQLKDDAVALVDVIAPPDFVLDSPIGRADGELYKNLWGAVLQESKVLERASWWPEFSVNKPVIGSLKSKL

Assay [7] addresses T3, Dual specificity mitogen-activated protein kinase kinase 5 (Homo sapiens, UniProt Q13163).
T3 sequence (Q13163 whole entry): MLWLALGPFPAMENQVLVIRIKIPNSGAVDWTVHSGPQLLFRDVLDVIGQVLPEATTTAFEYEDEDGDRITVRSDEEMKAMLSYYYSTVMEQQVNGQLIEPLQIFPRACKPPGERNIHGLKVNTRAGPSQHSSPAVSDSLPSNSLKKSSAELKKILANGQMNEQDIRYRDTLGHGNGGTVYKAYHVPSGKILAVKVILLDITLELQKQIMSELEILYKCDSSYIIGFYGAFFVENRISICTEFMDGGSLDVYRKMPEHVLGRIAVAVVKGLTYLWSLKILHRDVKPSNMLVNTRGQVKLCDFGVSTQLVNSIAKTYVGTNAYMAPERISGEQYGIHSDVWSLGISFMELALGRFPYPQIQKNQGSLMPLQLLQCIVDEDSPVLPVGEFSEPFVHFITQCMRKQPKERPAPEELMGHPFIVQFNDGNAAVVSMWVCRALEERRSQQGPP

The target of assay [8] is T4, Electron transfer flavoprotein subunit beta (Homo sapiens, UniProt P38117).
T4 sequence (P38117 whole entry): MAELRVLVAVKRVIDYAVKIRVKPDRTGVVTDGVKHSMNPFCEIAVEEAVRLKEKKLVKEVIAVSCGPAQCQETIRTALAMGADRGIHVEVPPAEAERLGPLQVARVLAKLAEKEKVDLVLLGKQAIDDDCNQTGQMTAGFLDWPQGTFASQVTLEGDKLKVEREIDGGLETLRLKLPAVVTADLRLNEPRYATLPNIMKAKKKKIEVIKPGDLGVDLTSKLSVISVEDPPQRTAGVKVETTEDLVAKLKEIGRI

Activity calls are given as the source filed them.

From ChEMBL document CHEMBL3991601, “The target landscape of clinical kinase drugs” (Science, 2017) come the findings set out here.

By Kd is commonly meant the concentration at which binding is half-saturated.
Note: in the data inactive means no Kd found up to 30 µM.

Sequence of Cyclin-dependent kinase 12 (Q9NYV4 whole entry): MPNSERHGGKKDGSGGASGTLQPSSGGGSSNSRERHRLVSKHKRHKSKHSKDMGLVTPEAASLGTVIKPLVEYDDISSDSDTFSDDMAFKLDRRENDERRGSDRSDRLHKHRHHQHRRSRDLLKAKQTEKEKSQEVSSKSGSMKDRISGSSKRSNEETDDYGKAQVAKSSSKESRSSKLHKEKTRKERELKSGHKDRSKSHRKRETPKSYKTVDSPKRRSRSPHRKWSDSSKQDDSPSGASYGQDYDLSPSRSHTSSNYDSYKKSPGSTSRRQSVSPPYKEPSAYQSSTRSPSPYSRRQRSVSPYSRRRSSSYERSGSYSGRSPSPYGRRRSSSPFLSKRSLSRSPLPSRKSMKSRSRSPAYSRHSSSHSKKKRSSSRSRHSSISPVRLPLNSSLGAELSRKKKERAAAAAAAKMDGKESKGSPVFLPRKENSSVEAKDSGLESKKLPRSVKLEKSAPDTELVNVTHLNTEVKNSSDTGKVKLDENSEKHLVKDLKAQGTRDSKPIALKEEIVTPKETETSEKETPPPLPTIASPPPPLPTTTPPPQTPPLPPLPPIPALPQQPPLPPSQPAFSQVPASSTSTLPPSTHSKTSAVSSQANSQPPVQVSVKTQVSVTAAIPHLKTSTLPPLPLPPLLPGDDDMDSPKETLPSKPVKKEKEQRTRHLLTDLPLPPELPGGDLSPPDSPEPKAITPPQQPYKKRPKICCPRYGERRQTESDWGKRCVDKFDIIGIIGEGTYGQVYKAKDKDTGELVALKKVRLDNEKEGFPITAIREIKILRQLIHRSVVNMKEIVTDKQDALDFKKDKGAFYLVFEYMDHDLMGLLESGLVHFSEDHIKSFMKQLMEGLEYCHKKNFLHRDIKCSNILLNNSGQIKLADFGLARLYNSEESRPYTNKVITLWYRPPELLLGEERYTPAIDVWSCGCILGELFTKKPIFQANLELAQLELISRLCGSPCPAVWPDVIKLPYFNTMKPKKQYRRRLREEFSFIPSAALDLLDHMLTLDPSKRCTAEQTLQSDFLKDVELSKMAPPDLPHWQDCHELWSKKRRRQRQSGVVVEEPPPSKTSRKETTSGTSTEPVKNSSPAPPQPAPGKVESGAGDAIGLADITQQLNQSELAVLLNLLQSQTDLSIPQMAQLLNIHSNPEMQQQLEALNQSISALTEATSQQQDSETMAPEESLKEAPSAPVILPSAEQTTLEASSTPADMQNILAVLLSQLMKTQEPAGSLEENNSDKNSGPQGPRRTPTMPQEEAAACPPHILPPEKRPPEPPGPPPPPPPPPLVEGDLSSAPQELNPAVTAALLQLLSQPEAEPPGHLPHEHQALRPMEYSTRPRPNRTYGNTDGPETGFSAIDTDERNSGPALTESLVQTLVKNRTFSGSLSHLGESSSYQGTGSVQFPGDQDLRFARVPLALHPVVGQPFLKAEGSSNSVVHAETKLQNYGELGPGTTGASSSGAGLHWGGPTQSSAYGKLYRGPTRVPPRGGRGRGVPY
Sequence of Insulin-like growth factor 1 receptor (P08069 31-736 limits assumed): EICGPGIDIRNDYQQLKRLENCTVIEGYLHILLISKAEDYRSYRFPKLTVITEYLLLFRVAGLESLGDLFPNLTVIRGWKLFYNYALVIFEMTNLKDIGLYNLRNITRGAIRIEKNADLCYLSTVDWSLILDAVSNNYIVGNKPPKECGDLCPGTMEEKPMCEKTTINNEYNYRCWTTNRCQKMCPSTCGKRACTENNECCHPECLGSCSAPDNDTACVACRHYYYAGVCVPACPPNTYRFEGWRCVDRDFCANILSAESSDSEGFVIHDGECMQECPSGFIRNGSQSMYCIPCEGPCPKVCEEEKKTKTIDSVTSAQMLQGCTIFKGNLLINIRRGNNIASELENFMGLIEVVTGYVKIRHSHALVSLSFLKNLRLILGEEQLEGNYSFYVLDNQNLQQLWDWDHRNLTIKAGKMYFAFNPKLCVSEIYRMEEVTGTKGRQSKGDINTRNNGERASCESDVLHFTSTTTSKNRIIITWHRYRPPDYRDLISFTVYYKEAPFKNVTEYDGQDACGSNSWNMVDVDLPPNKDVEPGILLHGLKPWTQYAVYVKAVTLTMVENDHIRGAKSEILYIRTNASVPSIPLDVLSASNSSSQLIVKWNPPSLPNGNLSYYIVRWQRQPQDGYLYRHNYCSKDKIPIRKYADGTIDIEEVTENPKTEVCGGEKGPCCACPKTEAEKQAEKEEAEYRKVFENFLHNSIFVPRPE
Sequence of Insulin-like growth factor 1 receptor (P08069 741-1367 limits assumed): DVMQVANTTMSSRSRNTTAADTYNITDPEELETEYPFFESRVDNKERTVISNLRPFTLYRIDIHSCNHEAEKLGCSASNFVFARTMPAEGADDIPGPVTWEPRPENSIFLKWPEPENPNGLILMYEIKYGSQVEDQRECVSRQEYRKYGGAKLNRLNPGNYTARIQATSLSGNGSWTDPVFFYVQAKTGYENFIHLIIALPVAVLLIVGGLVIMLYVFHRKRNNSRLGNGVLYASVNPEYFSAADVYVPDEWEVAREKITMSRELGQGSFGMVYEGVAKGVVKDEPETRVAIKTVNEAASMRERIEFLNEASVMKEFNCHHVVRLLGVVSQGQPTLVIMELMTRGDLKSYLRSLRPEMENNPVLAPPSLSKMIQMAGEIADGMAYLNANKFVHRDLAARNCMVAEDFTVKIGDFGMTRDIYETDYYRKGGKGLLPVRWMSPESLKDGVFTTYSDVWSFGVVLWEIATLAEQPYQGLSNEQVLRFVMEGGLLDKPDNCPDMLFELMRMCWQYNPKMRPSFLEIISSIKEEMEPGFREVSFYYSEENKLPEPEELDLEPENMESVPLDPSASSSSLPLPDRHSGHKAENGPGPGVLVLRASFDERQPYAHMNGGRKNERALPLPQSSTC
Sequence of Receptor-interacting serine/threonine-protein kinase 2 (O43353 whole entry): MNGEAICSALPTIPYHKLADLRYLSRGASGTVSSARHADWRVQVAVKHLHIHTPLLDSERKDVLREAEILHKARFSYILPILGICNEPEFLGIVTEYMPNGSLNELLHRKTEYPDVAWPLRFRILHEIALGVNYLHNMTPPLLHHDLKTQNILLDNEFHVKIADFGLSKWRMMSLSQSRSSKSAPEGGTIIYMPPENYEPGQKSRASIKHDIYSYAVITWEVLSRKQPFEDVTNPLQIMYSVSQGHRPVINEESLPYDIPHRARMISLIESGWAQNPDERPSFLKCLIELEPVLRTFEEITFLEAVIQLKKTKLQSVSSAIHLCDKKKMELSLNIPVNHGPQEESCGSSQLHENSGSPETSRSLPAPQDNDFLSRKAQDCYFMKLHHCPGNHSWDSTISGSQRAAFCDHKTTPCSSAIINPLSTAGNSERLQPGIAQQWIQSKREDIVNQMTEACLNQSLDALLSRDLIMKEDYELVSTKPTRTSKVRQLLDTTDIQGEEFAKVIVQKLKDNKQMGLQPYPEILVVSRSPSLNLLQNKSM
Sequence of Ribosomal protein S6 kinase beta-1 (P23443 whole entry): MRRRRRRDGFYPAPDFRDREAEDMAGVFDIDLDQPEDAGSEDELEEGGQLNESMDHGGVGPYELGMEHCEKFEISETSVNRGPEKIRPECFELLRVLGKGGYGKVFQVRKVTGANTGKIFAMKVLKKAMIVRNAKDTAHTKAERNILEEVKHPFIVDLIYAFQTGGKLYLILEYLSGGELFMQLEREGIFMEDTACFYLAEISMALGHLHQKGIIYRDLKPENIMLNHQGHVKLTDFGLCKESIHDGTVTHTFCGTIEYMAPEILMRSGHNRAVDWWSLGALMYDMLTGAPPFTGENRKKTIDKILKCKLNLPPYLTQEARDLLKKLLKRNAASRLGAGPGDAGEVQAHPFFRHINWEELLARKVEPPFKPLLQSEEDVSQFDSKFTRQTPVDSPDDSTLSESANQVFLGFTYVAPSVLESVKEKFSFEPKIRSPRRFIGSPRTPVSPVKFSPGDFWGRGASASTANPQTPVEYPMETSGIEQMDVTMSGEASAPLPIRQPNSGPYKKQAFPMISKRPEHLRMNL

For the compound `O=c1sn(-c2cccc3ccccc23)c(=O)n1Cc1ccccc1` [TIDEGLUSIB], the Kd in assay [1], in assay [2], in assay [3], in assay [4], in assay [5] and in assay [6] was > 30 µM (inactive) throughout. The Kd in assay [7] and in assay [8] was > 30 µM (inactive) each time.

Take `Cc1ccc(-n2nc(C(C)(C)C)cc2NC(=O)NCc2cc(F)ccc2Oc2ccc3c(cnn3CCO)c2)cc1` [PEXMETINIB]: the Kd in assay [1], in assay [2], in assay [3], in assay [4], in assay [5] and in assay [6] was > 30 µM (inactive) throughout. For the same compound, the Kd in assay [7] and in assay [8] was > 30 µM (inactive) each time.

Take `CCN1CCN(Cc2ccc(-c3cc4c(N[C@H](C)c5ccccc5)ncnc4[nH]3)cc2)CC1` [AEE-788]: the Kd in assay [1], in assay [2], in assay [3], in assay [4], in assay [5] and in assay [6] was > 30 µM (inactive) each time. Also, the Kd in assay [7] is 9.43 µM (active); in assay [8], > 30 µM (inactive).

In the case of `Cc1ccc(NC(=O)c2ccc(CN3CC[C@H](N(C)C)C3)c(C(F)(F)F)c2)cc1Nc1nccc(-c2cncnc2)n1` [BAFETINIB], the Kd was > 30 µM (inactive) in assay [1]; > 30 µM (inactive) in assay [2]; 1.47 µM (active) in assay [3]; > 30 µM (inactive) in assay [4]; > 30 µM (inactive) in assay [5]; > 30 µM (inactive) in assay [6]. Also, the values for the equilibrium dissociation constant (Kd) in assay [7] and in assay [8] were 11.4 µM (active) and > 30 µM (inactive), respectively.

For `CN(C)C(=O)c1cc2cnc(Nc3ccc(N4CCNCC4)cn3)nc2n1C1CCCC1` [RIBOCICLIB], the Kd in assay [1], in assay [2], in assay [3], in assay [4], in assay [5] and in assay [6] was > 30 µM (inactive) throughout. Moreover, the Kd in assay [7] and in assay [8] was > 30 µM (inactive) in each case.

As for `COCCNCc1ccc(-c2cc3nccc(Oc4ccc(NC(=S)NC(=O)Cc5ccc(F)cc5)cc4F)c3s2)nc1` [GLESATINIB], the Kd in assay [1], in assay [2], in assay [3], in assay [4], in assay [5] and in assay [6] was > 30 µM (inactive) in each case. Moreover, the Kd in assay [7] and in assay [8] was > 30 µM (inactive) throughout.

With `Cn1cc(-c2ccc3nnc(C(F)(F)c4ccc5ncccc5c4)n3n2)cn1` [JNJ-38877605], the Kd in assay [1], in assay [2], in assay [3], in assay [4], in assay [5] and in assay [6] was > 30 µM (inactive) each time. The Kd in assay [7] and in assay [8] was > 30 µM (inactive) in each case.

As for `CC[C@H](Nc1ncnc2[nH]cnc12)c1nc2cccc(F)c2c(=O)n1-c1ccccc1` [IDELALISIB], the Kd in assay [1], in assay [2], in assay [3], in assay [4], in assay [5] and in assay [6] was > 30 µM (inactive) in each case. Moreover, the Kd in assay [7] and in assay [8] was > 30 µM (inactive) each time.

As to `CN1CC[C@@H](c2c(O)cc(O)c3c(=O)cc(-c4ccccc4Cl)oc23)[C@@H]1CO`, the Kd in assay [1] is > 30 µM (inactive); in assay [2] it was > 30 µM (inactive); in assay [3], > 30 µM (inactive); in assay [4], > 30 µM (inactive); in assay [5], 3.16 µM (active); in assay [6] it was > 30 µM (inactive). In addition, the Kd in assay [7] and in assay [8] was > 30 µM (inactive) each time.

On to `CN1N=C(N)c2cn([C@@H]3O[C@H](COP(=O)(O)O)[C@@H](O)[C@H]3O)c3ncnc1c23` [TRICIRIBINE PHOSPHATE], for which the Kd in assay [1], in assay [2], in assay [3], in assay [4], in assay [5] and in assay [6] was > 30 µM (inactive) each time. Moreover, the Kd in assay [7] and in assay [8] was > 30 µM (inactive) in each case.

For the compound `Cc1cc(-c2cc(O)ccc2Cl)cc2nnc(Nc3ccc(OCCN4CCCC4)cc3)nc12`, the Kd in assay [1] was > 30 µM (inactive); in assay [2], > 30 µM (inactive); in assay [3] it was 0.0009 µM (active); in assay [4], > 30 µM (inactive); in assay [5] it was > 30 µM (inactive); in assay [6] it was > 30 µM (inactive). Moreover, the Kd in assay [7] and in assay [8] was > 30 µM (inactive) throughout.
